{"source": "patent US20210213129A1", "about": "“NON-PSYCHOACTIVE CANNABINOIDS AS ADJUVANTS TO ENHANCE MUCOSAL IMMUNITY” (Immugen Pharma LLC, priority 2014, published 2021)", "origin": "cited, not measured here", "key": {"T cells [1]": {"system": "T cells", "conditions": "mixed lymphocyte reaction and highly purified T cells"}, "GATA3; IL12Rβ2": {"system": "GATA3; IL12Rβ2", "conditions": "mice, after Legionella challenge"}, "T cells [2]": {"system": "T cells", "conditions": "T cells stimulated by allogeneic dendritic cells or anti-CD3/anti-CD28"}, "macrophages": {"system": "macrophages", "conditions": "macrophages activated by LPS or TMEV"}, "B-cells": {"system": "B-cells", "conditions": "cultured B-cells, co-stimulation with IL-4 and anti-CD40"}, "B cells": {"system": "B cells", "conditions": "selective CB1 antagonist added"}}, "data": [{"smiles": "CCCCCc1cc(O)c2c(c1)OC(C)(C)[C@@H]1CCC(C)=C[C@@H]21", "note": "[THC, tetrahydrocannabinol]", "values": [{"measurement": "Th1 cytokines Il-2, IFN-γ and Il-12", "setting": "T cells [1]; CB1 mediated", "result": "downregulation"}, {"measurement": "IL-4 and Il-5", "setting": "T cells [1]; CB2 mediated", "result": "upregulation"}, {"measurement": "TH2 biasing factor GATA3", "setting": "GATA3; IL12Rβ2; CB2 mechanism", "result": "upregulation"}, {"measurement": "IL12Rβ2, a marker of TH1 polarization", "setting": "GATA3; IL12Rβ2; mediated by CB1 receptor", "result": "downregulation"}, {"measurement": "IL-4, % of diluent control levels", "setting": "T cells [2]; of diluent control levels", "result": "105±11", "unit": "%"}, {"measurement": "decrease of INF-γ", "setting": "T cells [2]; p<0.05", "result": "51±18", "unit": "%"}]}, {"smiles": "CCCC(C)(C)c1ccc2c(c1)OC(C)(C)[C@@H]1CC=C(C)C[C@@H]21", "note": "[JWH-133]", "values": [{"measurement": "IL-12p40", "setting": "macrophages", "result": "downregulated"}]}, {"smiles": "Cc1ccc(Cn2nc(C(=O)NC3C4(C)CCC(C4)C3(C)C)cc2-c2ccc(Cl)c(C)c2)cc1", "note": "(centres unmarked) [SR 144528A]", "values": [{"measurement": "proliferative response of virgin and GC B cells by CP55,940", "setting": "virgin and GC B cells; selective CB2 receptor antagonist against agonist CP55,940", "result": "inhibited"}]}, {"smiles": "CCCCCCC(C)(C)c1ccc([C@@H]2C[C@H](O)CC[C@H]2CCCO)c(O)c1", "note": "[CP55940]", "values": [{"measurement": "proliferation of B-cell subsets", "setting": "virgin and GC B cells; in the absence of CD40 MoAbs", "result": "incapable of inducing any proliferation"}, {"measurement": "increased IgE expression", "setting": "B-cells", "result": "40-60%"}]}, {"smiles": "Cc1c(C(=O)NN2CCCCC2)nn(-c2ccc(Cl)cc2Cl)c1-c1ccc(Cl)cc1", "note": "[SR141716A]", "values": [{"measurement": "block of CB2 receptor mRNA expression and of the B-cell enhancing effects of the drug", "setting": "B cells", "result": "did not block"}]}]}
